# In PMC6470557, “Synthesis of New GABAA Receptor Modulator with Pyrazolo[1,5-a]quinazoline (PQ) Scaffold” (International Journal of Molecular Sciences, 2019):
# pEC50: −log10 of the molar value.
# Assays:
# Assay type in all cases: cell-based
# [1] = molecular target: T1, α1β2γ2L GABAA receptor (α1 subunit) (Homo sapiens, UniProt P14867+P18507); assay: two-electrode voltage clamp of GABA currents in oocytes; also […] [3H]flumazenil displacement at […] in bovine membranes
# T1 construct: gene GABRA1; recombinant α1β2γ2L receptor in Xenopus laevis oocytes; with GABAA receptor β2 (GABRB2) and γ2L (GABRG2) subunits
# [2] = molecular target: T2, α1β2 GABAA receptor (α1 subunit) (Homo sapiens, UniProt P14867+P47870); assay: voltage clamp: reduction of CGS […] potentiation (data not shown); […] [3H]flumazenil displacement at […] in bovine membranes
# T2 construct: gene GABRA1; recombinant α1β2 receptor (devoid of the γ subunit) in Xenopus laevis oocytes; with GABAA receptor β2 subunit (GABRB2)
# T2 sequence (P14867 28-456): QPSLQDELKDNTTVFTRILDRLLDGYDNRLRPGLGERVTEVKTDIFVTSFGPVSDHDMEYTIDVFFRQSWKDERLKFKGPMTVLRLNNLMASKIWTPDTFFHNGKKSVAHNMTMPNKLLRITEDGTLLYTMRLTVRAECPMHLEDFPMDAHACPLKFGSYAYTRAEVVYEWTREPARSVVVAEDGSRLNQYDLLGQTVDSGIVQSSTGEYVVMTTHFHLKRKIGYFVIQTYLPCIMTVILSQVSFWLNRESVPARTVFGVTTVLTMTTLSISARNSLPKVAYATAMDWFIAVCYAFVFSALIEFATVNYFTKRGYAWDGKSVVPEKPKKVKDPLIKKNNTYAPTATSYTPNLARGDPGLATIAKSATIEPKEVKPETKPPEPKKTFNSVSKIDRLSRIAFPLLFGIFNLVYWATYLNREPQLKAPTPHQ
# T2 sequence (P47870 26-512): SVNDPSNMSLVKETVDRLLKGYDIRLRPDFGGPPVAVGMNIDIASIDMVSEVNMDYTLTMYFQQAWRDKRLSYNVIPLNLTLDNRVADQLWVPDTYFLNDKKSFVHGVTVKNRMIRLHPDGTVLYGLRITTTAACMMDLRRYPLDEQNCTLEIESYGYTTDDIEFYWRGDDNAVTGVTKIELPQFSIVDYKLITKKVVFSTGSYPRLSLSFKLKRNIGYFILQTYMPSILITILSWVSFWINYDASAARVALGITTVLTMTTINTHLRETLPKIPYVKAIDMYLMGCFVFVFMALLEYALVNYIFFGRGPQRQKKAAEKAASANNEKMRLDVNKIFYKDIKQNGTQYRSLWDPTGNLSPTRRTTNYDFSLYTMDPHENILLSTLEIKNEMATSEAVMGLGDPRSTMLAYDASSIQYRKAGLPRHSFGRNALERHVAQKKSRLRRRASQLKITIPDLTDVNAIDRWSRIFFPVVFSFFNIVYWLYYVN
# [3] = molecular target: T2, α1β2 GABAA receptor (α1 subunit); assay: voltage clamp: block of CGS […] potentiation (data not shown); […] [3H]flumazenil displacement at […] in bovine membranes
# T1 sequence (P18507 40-475, one chain of several): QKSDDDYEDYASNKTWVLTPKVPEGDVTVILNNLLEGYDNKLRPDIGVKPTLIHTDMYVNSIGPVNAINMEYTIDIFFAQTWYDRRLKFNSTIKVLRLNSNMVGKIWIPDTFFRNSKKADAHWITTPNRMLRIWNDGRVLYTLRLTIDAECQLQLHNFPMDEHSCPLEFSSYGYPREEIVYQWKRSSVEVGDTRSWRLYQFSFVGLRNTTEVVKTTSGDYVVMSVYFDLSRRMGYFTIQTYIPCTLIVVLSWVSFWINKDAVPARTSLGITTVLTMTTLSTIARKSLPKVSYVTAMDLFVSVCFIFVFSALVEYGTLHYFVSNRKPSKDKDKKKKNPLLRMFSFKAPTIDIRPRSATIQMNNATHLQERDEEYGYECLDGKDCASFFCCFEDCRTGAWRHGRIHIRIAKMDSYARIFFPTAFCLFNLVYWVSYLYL
smiles,measurement,setting,value
"COc1ccc2cnc3c(C(=O)c4cccs4)cnn3c2c1 [6b, 3-(Thien-2-ylcarbonyl)-8-methoxypyrazolo[1,5-a]quinazoline]",pEC50,[1],4.92
"COc1ccc2cnc3c(-c4ccsc4)cnn3c2c1 [5e, 3-(Thien-3-yl)-8-methoxypyrazolo[1,5-a]quinazoline]",voltage clamp: reduction of CGS 9895 potentiation (data not shown); >80% [3H]flu,[2],"compounds 5d and 5e, which in the same test completely blocked or strongly reduced the potentiation of the GABAA receptor function"
"COc1ccc2cnc3c(-c4cccs4)cnn3c2c1 [5d, 3-(Thien-2-yl)-8-methoxypyrazolo[1,5-a]quinazoline]",voltage clamp: block of CGS 9895 potentiation (data not shown); >80% [3H]flumaze,[3],"compounds 5d and 5e, which in the same test completely blocked or strongly reduced the potentiation of the GABAA receptor function"
